From the NIST ThermoML archive (doi:10.1016/j.fluid.2012.11.005)
Numbers after ± are expanded uncertainties.

Assay: excess molar enthalpy (molar enthalpy of mixing); xn = mol fraction of the nth substance listed
Details: 101 kPa, Liquid, Flow calorimetry

CC(C)CC(C)(C)C [2,2,4-trimethylpentane] + CCCCCO
x2 = 0
Details | excess molar enthalpy [kcal/mol]
298.15 K | 0 ± 0.000239
313.15 K | 0 ± 0.000239

CCCCCCC [heptane] + CCCCCO
x2 = 0
Details | excess molar enthalpy [kcal/mol]
298.15 K | 0 ± 0.000239
313.15 K | 0 ± 0.000239

CCCCCO [pentan-1-ol] + CC(C)CC(C)(C)C
excess molar enthalpy [kcal/mol]
Details | 298.15 K | 313.15 K
x1 = 0.0508 | 0.0899 ± 0.00122 | –
x1 = 0.051 | – | 0.124 ± 0.00165
x1 = 0.0999 | 0.112 ± 0.00148 | –
x1 = 0.1003 | – | 0.155 ± 0.00201
x1 = 0.1501 | 0.126 ± 0.00165 | –
x1 = 0.1506 | – | 0.174 ± 0.00225
x1 = 0.2008 | 0.137 ± 0.00177 | –
x1 = 0.2019 | – | 0.187 ± 0.00239
x1 = 0.25 | 0.143 ± 0.00186 | –
x1 = 0.2512 | – | 0.194 ± 0.00239
x1 = 0.2999 | 0.148 ± 0.00191 | –
x1 = 0.3012 | – | 0.199 ± 0.00263
x1 = 0.3516 | 0.148 ± 0.00191 | –
x1 = 0.3517 | – | 0.2 ± 0.00263
x1 = 0.4025 | 0.147 ± 0.00191 | –
x1 = 0.4026 | – | 0.199 ± 0.00263
x1 = 0.4514 | 0.145 ± 0.00189 | 0.194 ± 0.00239
x1 = 0.5025 | 0.139 ± 0.00182 | –
x1 = 0.5026 | – | 0.187 ± 0.00239
x1 = 0.5516 | 0.131 ± 0.00172 | –
x1 = 0.5517 | – | 0.177 ± 0.00227
x1 = 0.6025 | 0.121 ± 0.00158 | –
x1 = 0.6026 | – | 0.164 ± 0.0021
x1 = 0.6513 | 0.109 ± 0.00143 | 0.148 ± 0.00191
x1 = 0.7015 | 0.0951 ± 0.00127 | –
x1 = 0.7016 | – | 0.13 ± 0.0017
x1 = 0.7512 | 0.0802 ± 0.0011 | –
x1 = 0.7513 | – | 0.11 ± 0.00146
x1 = 0.8003 | 0.064 ± 0.000884 | 0.088 ± 0.0012
x1 = 0.8503 | 0.048 ± 0.000693 | 0.0654 ± 0.000908
x1 = 0.9008 | 0.0311 ± 0.000502 | 0.0423 ± 0.000645
x1 = 0.9503 | 0.0147 ± 0.000311 | 0.0205 ± 0.000382
x1 = 1 | 0 ± 0.000239 | 0 ± 0.000239

CCCCCO [pentan-1-ol] + CCCCCCC
excess molar enthalpy [kcal/mol]
Details | 298.15 K | 313.15 K
x1 = 0.0484 | – | 0.113 ± 0.00153
x1 = 0.0563 | 0.088 ± 0.0012 | –
x1 = 0.0981 | – | 0.148 ± 0.00191
x1 = 0.1109 | 0.111 ± 0.00146 | –
x1 = 0.149 | – | 0.165 ± 0.00213
x1 = 0.1664 | 0.125 ± 0.00165 | –
x1 = 0.1985 | – | 0.177 ± 0.00227
x1 = 0.2203 | 0.134 ± 0.00174 | –
x1 = 0.2491 | – | 0.187 ± 0.00239
x1 = 0.2749 | 0.141 ± 0.00184 | –
x1 = 0.2983 | – | 0.19 ± 0.00239
x1 = 0.3279 | 0.145 ± 0.00186 | –
x1 = 0.3483 | – | 0.192 ± 0.00239
x1 = 0.3793 | 0.146 ± 0.00189 | –
x1 = 0.3991 | – | 0.186 ± 0.00239
x1 = 0.4314 | 0.144 ± 0.00186 | –
x1 = 0.4484 | – | 0.186 ± 0.00239
x1 = 0.4818 | 0.139 ± 0.00182 | –
x1 = 0.4984 | – | 0.177 ± 0.00227
x1 = 0.5328 | 0.131 ± 0.00172 | –
x1 = 0.5488 | – | 0.166 ± 0.00215
x1 = 0.5822 | 0.122 ± 0.0016 | –
x1 = 0.5977 | – | 0.159 ± 0.00206
x1 = 0.6281 | 0.11 ± 0.00146 | –
x1 = 0.6489 | – | 0.144 ± 0.00186
x1 = 0.6765 | 0.0984 ± 0.00131 | –
x1 = 0.7003 | – | 0.124 ± 0.00163
x1 = 0.7235 | 0.0849 ± 0.00115 | –
x1 = 0.7483 | – | 0.106 ± 0.00141
x1 = 0.7725 | 0.071 ± 0.00098 | –
x1 = 0.7981 | – | 0.0845 ± 0.00115
x1 = 0.8182 | 0.0576 ± 0.000813 | –
x1 = 0.8497 | – | 0.0637 ± 0.000884
x1 = 0.8643 | 0.0427 ± 0.000645 | –
x1 = 0.8995 | – | 0.042 ± 0.000645
x1 = 0.9104 | 0.0282 ± 0.000478 | –
x1 = 0.9491 | – | 0.0196 ± 0.000382
x1 = 0.9552 | 0.0138 ± 0.000311 | –
x1 = 1 | 0 ± 0.000239 | 0 ± 0.000239
